This is an account of results in paper PMC12086361, “Downstream Signaling of Muscarinic M4 Receptors Is Regulated by Receptor Density and Cellular Environment” (Pharmacology Research & Perspectives, 2025).

This assay has as its target T1, human M4 receptor (hM4) (Homo sapiens, UniProt P08173).
T1 construct: gene CHRM4
T1 sequence (P08173 1-479): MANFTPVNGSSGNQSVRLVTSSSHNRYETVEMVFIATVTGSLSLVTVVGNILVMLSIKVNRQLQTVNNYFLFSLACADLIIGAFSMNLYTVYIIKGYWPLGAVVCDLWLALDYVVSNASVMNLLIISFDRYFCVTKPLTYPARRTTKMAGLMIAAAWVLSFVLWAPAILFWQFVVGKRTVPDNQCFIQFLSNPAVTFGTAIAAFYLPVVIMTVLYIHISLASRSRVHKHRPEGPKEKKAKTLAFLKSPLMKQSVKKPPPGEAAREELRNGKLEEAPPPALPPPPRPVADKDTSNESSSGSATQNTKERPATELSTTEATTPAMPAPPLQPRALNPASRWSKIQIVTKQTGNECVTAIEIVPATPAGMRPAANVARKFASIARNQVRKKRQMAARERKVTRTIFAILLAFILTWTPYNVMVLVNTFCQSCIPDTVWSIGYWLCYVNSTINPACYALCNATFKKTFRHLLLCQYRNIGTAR
In words: cADDis cAMP sensor FLIPR assay, HEK293 hM4, decrease of forskolin-stimulated cAMP. Type of assay: cell-based. The note with it: read-out: HEK-293, hM4, cAMP (48 h) / Gi pEC50 /slope (converted). The source says: cADDis cAMP sensor FLIPR assay, HEK293 hM4, decrease of forskolin-stimulated cAMP on human M4 receptor (hM4)

Regarding `CCOC(=O)N1CC2(CCC(N3CCC(N(CC)C(C)=O)CC3)C2)C1` (stereo not drawn) [compound 6, compound-6], the EC50 was 0.407 nM.

Regarding `C[N+](C)(C)CC#CCN1CCCC1=O` [oxotremorine-M], the EC50 is 1.2 nM.

Take `COC(=O)N1CCC(N2CCC(n3c(=O)n(C)c4ccccc43)CC2)CC1` [compound 110, compound-110]: the EC50 is 0.646 nM.
